Laboratory results from ChEMBL document CHEMBL4507294, “Data for DCP probe MSD-CYP11B2” (2021).

Assays:
[1] = molecular target: Ephrin type-A receptor 3 (Homo sapiens) (UniProt P29320); conditions: Compound concentration 1000.0 nM
[2] = molecular target: Dual specificity protein kinase CLK4 (Homo sapiens) (UniProt Q9HAZ1); conditions: Compound concentration 1000.0 nM
[3] = test system: Mast/stem cell growth factor receptor Kit (Homo sapiens), P10721 [V559D]; conditions: Compound concentration 1000.0 nM
Sequence of Mast/stem cell growth factor receptor Kit (Homo sapiens), P10721 [V559D] (P10721 whole entry V559D): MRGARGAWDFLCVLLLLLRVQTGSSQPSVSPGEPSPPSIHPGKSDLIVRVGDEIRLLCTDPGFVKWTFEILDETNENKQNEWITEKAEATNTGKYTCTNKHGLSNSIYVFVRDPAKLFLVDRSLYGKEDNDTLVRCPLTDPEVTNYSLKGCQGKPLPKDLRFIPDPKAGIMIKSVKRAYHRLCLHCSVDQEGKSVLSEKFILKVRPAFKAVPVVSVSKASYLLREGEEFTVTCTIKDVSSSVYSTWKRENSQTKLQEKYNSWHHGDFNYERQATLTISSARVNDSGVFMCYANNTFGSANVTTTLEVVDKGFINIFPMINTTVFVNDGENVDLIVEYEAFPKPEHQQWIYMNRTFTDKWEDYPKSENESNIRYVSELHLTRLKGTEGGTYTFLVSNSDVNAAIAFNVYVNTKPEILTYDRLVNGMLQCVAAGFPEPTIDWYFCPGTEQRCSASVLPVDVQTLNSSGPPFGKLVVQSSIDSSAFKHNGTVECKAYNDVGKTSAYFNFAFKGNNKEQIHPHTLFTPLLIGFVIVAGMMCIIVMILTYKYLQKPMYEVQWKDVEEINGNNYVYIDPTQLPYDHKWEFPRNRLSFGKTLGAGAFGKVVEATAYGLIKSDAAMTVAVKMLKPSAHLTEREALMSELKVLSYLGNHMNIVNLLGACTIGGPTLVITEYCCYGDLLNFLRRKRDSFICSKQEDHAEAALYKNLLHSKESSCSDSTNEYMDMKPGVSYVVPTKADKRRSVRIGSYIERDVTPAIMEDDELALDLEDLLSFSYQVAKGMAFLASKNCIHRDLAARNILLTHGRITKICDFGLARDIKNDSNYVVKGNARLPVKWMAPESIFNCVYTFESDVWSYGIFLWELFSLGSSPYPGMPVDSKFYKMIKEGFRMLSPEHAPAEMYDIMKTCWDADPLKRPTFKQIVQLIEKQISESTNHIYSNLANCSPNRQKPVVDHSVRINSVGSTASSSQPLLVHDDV

[4] = test system: Epidermal growth factor receptor (Homo sapiens), P00533 [L858R,T790M]; conditions: Compound concentration 1000.0 nM
[5] = molecular target: Dual specificity testis-specific protein kinase 1 (Homo sapiens) (UniProt Q15569); conditions: Compound concentration 1000.0 nM
[6] = molecular target: Homeodomain-interacting protein kinase 3 (Homo sapiens) (UniProt Q9H422); conditions: Compound concentration 1000.0 nM
[7] = molecular target: 5-hydroxytryptamine receptor 5A (Homo sapiens) (UniProt P47898); conditions: Compound concentration 10.0 uM
[8] = molecular target: Serine/threonine-protein kinase D1 (Homo sapiens) (UniProt Q15139); conditions: Compound concentration 1000.0 nM
[9] = molecular target: Tyrosine-protein kinase Lyn (Homo sapiens) (UniProt P07948); conditions: Compound concentration 1000.0 nM
[10] = molecular target: Myosin-IIIb (Homo sapiens) (UniProt Q8WXR4); conditions: Compound concentration 1000.0 nM
[11] = molecular target: Ribosomal protein S6 kinase alpha-6 (Homo sapiens) (UniProt Q9UK32); conditions: Compound concentration 1000.0 nM
[12] = molecular target: Beta-1 adrenergic receptor (Homo sapiens, UniProt P08588); conditions: Compound concentration 10.0 uM
Sequence of Beta-1 adrenergic receptor (P08588 whole entry, looked up): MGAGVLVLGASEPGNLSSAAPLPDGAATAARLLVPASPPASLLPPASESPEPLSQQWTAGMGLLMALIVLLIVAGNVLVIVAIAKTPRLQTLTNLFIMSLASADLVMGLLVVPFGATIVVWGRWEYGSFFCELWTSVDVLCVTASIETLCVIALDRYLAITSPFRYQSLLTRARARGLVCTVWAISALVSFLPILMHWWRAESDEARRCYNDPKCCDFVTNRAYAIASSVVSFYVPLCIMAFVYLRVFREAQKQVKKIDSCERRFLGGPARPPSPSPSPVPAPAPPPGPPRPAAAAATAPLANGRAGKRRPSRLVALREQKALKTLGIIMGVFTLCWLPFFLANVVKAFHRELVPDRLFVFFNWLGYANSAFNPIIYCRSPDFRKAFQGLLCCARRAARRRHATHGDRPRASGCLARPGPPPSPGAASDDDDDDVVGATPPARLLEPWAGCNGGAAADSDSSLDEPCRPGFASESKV

[13] = molecular target: Dual specificity tyrosine-phosphorylation-regulated kinase 2 (Homo sapiens) (UniProt Q92630); conditions: Compound concentration 1000.0 nM
[14] = molecular target: Epidermal growth factor receptor (Homo sapiens) (UniProt P00533); conditions: Compound concentration 1000.0 nM
[15] = molecular target: Phosphorylase b kinase regulatory subunit alpha, liver isoform (Homo sapiens) (UniProt P46019); conditions: Compound concentration 1000.0 nM
[16] = test system: Mast/stem cell growth factor receptor Kit (Homo sapiens), P10721 [V559D,V654A]; conditions: Compound concentration 1000.0 nM
[17] = test system: Tyrosine-protein kinase ABL1 (Homo sapiens), P00519 [F317L]; conditions: Compound concentration 1000.0 nM
[18] = molecular target: Activated CDC42 kinase 1 (Homo sapiens) (UniProt Q07912); conditions: Compound concentration 1000.0 nM
[19] = molecular target: Serine/threonine-protein kinase 24 (Homo sapiens) (UniProt Q9Y6E0); conditions: Compound concentration 1000.0 nM
[20] = molecular target: Macrophage colony-stimulating factor 1 receptor (Homo sapiens) (UniProt P07333); conditions: Compound concentration 1000.0 nM
Sequence of Macrophage colony-stimulating factor 1 receptor (Homo sapiens) (P07333 whole entry): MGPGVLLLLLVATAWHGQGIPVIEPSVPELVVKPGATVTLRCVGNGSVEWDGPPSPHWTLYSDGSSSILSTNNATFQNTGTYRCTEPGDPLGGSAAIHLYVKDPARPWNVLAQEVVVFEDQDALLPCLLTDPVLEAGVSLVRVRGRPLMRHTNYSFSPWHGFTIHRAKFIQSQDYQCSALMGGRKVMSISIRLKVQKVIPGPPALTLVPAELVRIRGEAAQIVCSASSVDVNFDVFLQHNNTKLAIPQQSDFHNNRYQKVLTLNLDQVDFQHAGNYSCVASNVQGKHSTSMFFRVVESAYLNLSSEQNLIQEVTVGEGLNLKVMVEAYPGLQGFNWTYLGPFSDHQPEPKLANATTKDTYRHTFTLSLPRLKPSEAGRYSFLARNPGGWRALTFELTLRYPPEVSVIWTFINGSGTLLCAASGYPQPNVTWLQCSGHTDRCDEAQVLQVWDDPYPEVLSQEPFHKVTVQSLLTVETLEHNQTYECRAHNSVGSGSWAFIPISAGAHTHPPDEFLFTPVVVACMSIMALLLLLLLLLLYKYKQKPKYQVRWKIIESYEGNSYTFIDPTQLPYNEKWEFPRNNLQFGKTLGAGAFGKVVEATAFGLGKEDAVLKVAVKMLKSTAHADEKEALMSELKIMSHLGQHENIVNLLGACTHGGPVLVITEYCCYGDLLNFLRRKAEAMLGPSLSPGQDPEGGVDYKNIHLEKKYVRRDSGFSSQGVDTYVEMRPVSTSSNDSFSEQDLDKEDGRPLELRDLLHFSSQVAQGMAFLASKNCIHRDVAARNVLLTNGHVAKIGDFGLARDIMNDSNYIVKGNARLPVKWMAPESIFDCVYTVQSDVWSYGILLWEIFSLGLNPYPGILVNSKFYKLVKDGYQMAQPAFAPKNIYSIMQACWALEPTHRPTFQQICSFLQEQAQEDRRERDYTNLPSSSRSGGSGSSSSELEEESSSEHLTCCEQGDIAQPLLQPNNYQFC

[21] = molecular target: Receptor-interacting serine/threonine-protein kinase 1 (Homo sapiens) (UniProt Q13546); conditions: Compound concentration 1000.0 nM
[22] = molecular target: Tyrosine-protein kinase Yes (Homo sapiens) (UniProt P07947); conditions: Compound concentration 1000.0 nM
Sequence of Tyrosine-protein kinase Yes (Homo sapiens) (P07947 2-543 limits assumed): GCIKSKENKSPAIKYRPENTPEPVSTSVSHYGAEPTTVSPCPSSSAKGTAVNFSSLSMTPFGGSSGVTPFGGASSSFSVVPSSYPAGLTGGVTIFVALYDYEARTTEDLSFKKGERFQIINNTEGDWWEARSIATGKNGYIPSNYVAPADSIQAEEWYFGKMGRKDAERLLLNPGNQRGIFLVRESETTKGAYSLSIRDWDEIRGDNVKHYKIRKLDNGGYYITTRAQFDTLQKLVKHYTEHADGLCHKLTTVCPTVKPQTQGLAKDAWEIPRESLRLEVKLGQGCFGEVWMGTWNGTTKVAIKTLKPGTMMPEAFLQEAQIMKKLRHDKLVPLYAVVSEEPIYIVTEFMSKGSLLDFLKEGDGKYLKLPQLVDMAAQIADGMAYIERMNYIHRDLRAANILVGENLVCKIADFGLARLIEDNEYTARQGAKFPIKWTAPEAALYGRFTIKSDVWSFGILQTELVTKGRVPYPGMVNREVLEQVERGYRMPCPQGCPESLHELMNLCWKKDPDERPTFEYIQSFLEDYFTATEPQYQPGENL

[23] = molecular target: TGF-beta receptor type-2 (Homo sapiens) (UniProt P37173); conditions: Compound concentration 1000.0 nM
[24] = molecular target: Non-receptor tyrosine-protein kinase TYK2 (Homo sapiens) (UniProt P29597); conditions: Compound concentration 1000.0 nM
[25] = molecular target: Ribosomal protein S6 kinase alpha-4 (Homo sapiens) (UniProt O75676); conditions: Compound concentration 1000.0 nM
[26] = molecular target: Mitogen-activated protein kinase 1 (Homo sapiens) (UniProt P28482); conditions: Compound concentration 1000.0 nM
[27] = molecular target: Serine/threonine-protein kinase PLK4 (Homo sapiens) (UniProt O00444); conditions: Compound concentration 1000.0 nM
Sequence of Serine/threonine-protein kinase PLK4 (Homo sapiens) (O00444 whole entry): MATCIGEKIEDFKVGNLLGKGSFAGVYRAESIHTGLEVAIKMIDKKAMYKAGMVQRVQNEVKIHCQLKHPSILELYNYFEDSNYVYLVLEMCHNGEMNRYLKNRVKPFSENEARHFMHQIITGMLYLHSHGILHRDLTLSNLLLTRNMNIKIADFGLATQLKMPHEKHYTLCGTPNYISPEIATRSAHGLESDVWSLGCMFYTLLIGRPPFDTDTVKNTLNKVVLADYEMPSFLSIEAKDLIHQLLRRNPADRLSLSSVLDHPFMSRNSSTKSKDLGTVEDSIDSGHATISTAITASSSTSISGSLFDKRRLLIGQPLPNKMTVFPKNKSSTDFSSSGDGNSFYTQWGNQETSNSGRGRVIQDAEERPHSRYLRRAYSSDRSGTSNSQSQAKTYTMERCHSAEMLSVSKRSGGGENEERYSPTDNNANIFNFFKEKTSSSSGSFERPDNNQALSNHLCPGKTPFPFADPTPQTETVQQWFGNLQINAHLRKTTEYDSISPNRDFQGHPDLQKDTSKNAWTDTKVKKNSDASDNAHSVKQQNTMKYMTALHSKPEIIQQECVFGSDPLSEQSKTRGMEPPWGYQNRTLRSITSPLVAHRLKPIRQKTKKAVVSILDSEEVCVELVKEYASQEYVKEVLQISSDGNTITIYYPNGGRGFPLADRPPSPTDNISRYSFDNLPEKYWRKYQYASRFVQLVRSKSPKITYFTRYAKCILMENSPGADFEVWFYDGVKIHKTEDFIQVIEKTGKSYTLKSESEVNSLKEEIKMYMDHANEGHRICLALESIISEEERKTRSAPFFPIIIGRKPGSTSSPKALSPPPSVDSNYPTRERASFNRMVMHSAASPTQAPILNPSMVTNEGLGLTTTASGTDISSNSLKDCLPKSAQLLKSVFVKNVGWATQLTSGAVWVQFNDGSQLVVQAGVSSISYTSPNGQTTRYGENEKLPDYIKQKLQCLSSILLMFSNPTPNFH

[28] = molecular target: Atypical kinase COQ8B, mitochondrial (Homo sapiens) (UniProt Q96D53); conditions: Compound concentration 1000.0 nM
Sequence of Atypical kinase COQ8B, mitochondrial (Homo sapiens) (Q96D53 whole entry): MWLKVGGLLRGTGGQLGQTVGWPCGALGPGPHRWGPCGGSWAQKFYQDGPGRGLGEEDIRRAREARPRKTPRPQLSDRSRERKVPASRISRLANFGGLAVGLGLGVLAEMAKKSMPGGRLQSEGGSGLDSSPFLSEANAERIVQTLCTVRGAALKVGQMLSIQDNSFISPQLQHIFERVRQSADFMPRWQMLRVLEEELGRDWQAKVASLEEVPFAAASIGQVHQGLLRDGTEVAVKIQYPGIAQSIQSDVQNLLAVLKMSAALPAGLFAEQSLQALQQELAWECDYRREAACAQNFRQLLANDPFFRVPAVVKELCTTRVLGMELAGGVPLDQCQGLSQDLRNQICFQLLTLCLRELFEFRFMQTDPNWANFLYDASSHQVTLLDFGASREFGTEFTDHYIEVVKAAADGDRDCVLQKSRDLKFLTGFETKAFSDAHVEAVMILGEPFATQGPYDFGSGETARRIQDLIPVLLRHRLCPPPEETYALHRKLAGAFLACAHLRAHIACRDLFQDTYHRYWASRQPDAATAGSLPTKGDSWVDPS

[29] = molecular target: Rhodopsin kinase GRK1 (Homo sapiens) (UniProt Q15835); conditions: Compound concentration 1000.0 nM
[30] = molecular target: Ribosomal protein S6 kinase alpha-1 (Homo sapiens) (UniProt Q15418); conditions: Compound concentration 1000.0 nM
[31] = molecular target: Phosphatidylinositol 5-phosphate 4-kinase type-2 gamma (Homo sapiens) (UniProt Q8TBX8); conditions: Compound concentration 1000.0 nM
Sequence of Phosphatidylinositol 5-phosphate 4-kinase type-2 gamma (Homo sapiens) (Q8TBX8 whole entry): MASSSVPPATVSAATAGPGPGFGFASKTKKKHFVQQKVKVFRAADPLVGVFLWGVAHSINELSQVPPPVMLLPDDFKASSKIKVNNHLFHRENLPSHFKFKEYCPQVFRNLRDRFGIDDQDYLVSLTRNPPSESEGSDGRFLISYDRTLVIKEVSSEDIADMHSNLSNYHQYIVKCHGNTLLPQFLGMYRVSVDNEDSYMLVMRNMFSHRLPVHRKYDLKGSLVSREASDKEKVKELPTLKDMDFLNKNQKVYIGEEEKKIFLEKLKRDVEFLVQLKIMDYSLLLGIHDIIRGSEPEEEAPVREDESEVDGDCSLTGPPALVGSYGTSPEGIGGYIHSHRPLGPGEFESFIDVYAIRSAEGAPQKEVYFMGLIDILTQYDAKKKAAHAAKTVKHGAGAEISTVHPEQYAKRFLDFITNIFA

[32] = molecular target: Serine/threonine-protein kinase MRCK alpha (Homo sapiens) (UniProt Q5VT25); conditions: Compound concentration 1000.0 nM
[33] = molecular target: Mast/stem cell growth factor receptor Kit (Homo sapiens) (UniProt P10721); conditions: Compound concentration 1000.0 nM
[34] = test system: Receptor-type tyrosine-protein kinase FLT3 (Homo sapiens), P36888 [R834Q]; conditions: Compound concentration 1000.0 nM
[35] = molecular target: Mitogen-activated protein kinase kinase kinase 2 (Homo sapiens) (UniProt Q9Y2U5); conditions: Compound concentration 1000.0 nM
[36] = molecular target: Serine/threonine-protein kinase Nek7 (Homo sapiens) (UniProt Q8TDX7); conditions: Compound concentration 1000.0 nM
[37] = molecular target: Ephrin type-A receptor 8 (Homo sapiens) (UniProt P29322); conditions: Compound concentration 1000.0 nM
[38] = molecular target: Myosin light chain kinase family member 4 (Homo sapiens) (UniProt Q86YV6); conditions: Compound concentration 1000.0 nM
[39] = test system: Hepatocyte growth factor receptor (Homo sapiens), P08581 [Y1235D]; conditions: Compound concentration 1000.0 nM
[40] = molecular target: LIM domain kinase 2 (Homo sapiens) (UniProt P53671); conditions: Compound concentration 1000.0 nM
[41] = molecular target: Serine/threonine-protein kinase PAK 3 (Homo sapiens) (UniProt O75914); conditions: Compound concentration 1000.0 nM
[42] = molecular target: Protein kinase C theta type (Homo sapiens) (UniProt Q04759); conditions: Compound concentration 1000.0 nM
[43] = molecular target: Tyrosine-protein kinase FRK (Homo sapiens) (UniProt P42685); conditions: Compound concentration 1000.0 nM
[44] = molecular target: D(1B) dopamine receptor (Homo sapiens) (UniProt P21918); conditions: Compound concentration 10.0 uM
[45] = molecular target: Mitogen-activated protein kinase 9 (Homo sapiens) (UniProt P45984); conditions: Compound concentration 1000.0 nM

## CC(C)(O)c1cncc(-c2nc3ccc(F)cc3n2C2CC2)c1 [MSD-CYP11B2]
[1]
  residual activity: 100%
[2]
  residual activity: 54%
[3]
  residual activity: 100%
[4]
  residual activity: 92%
[5]
  residual activity: 100%
[6]
  residual activity: 93%
[7]
  inhibition: -9.57%
[8]
  residual activity: 100%
[9]
  residual activity: 100%
[10]
  residual activity: 71%
[11]
  residual activity: 100%
[12]
  inhibition: 59.4%
[13]
  residual activity: 100%
[14]
  residual activity: 100%
[15]
  residual activity: 100%
[16]
  residual activity: 87%
[17]
  residual activity: 100%
[18]
  residual activity: 100%
[19]
  residual activity: 100%
[20]
  residual activity: 99%
[21]
  residual activity: 100%
[22]
  residual activity: 100%
[23]
  residual activity: 100%
[24]
  residual activity: 100%
[25]
  residual activity: 100%
[26]
  residual activity: 100%
[27]
  residual activity: 79%
[28]
  residual activity: 100%
[29]
  residual activity: 100%
[30]
  residual activity: 100%
[31]
  residual activity: 100%
[32]
  residual activity: 100%
[33]
  residual activity: 100%
[34]
  residual activity: 100%
[35]
  residual activity: 100%
[36]
  residual activity: 100%
[37]
  residual activity: 100%
[38]
  residual activity: 100%
[39]
  residual activity: 100%
[40]
  residual activity: 100%
[41]
  residual activity: 100%
[42]
  residual activity: 100%
[43]
  residual activity: 100%
[44]
  inhibition: 21%
[45]
  residual activity: 100%

## FC(F)(F)c1ccc2c(c1)nc(-c1cccnc1)n2C1CC1 [MSD-CYP11B2-Negative-control]
[1]
  residual activity: 100%
[2]
  residual activity: 100%
[3]
  residual activity: 100%
[4]
  residual activity: 100%
[5]
  residual activity: 100%
[6]
  residual activity: 100%
[7]
  inhibition: -2.64%
[8]
  residual activity: 100%
[9]
  residual activity: 82%
[10]
  residual activity: 67%
[11]
  residual activity: 100%
[12]
  inhibition: 13.4%
[13]
  residual activity: 100%
[14]
  residual activity: 86%
[15]
  residual activity: 100%
[16]
  residual activity: 100%
[17]
  residual activity: 100%
[18]
  residual activity: 100%
[19]
  residual activity: 100%
[20]
  residual activity: 100%
[21]
  residual activity: 100%
[22]
  residual activity: 100%
[23]
  residual activity: 100%
[24]
  residual activity: 100%
[25]
  residual activity: 100%
[26]
  residual activity: 100%
[27]
  residual activity: 78%
[28]
  residual activity: 100%
[29]
  residual activity: 100%
[30]
  residual activity: 100%
[31]
  residual activity: 100%
[32]
  residual activity: 100%
[33]
  residual activity: 100%
[34]
  residual activity: 100%
[35]
  residual activity: 100%
[36]
  residual activity: 100%
[37]
  residual activity: 100%
[38]
  residual activity: 100%
[39]
  residual activity: 100%
[40]
  residual activity: 100%
[41]
  residual activity: 100%
[42]
  residual activity: 100%
[43]
  residual activity: 100%
[44]
  inhibition: 22.5%
[45]
  residual activity: 100%
